Measured values reported in patent publication US20090099237A1, “Methods of treating inflammatory diseases” (Roche Palo Alto LLC, priority 2007, published 2009).
Read-outs that look alike come from different tables or passages of the source.

Assays:
CK1δ = target: T1, CK1δ (Homo sapiens, UniProt P48730); assay: In vitro kinase assay (33P, peptide substrate); assay type: biochemical
T1 construct: purchased Upstate

AMPK-alpha1 = target: T2, AMPK-alpha1 (Homo sapiens, UniProt Q13131); assay: KinomeScan kinase profiling; assay type: binding; details: 10 μM
T2 construct: purchased Ambit Biosciences

BRAF = target: T3, BRAF (Homo sapiens, UniProt P15056); assay: KinomeScan kinase profiling; assay type: binding; details: 10 μM
T3 construct: purchased Ambit Biosciences

BRAF(V600E) = target: T4, BRAF(V600E) (Homo sapiens, UniProt P15056, V600E); assay: KinomeScan kinase profiling; assay type: binding; details: 10 μM
T4 construct: purchased Ambit Biosciences

EPHA2 = target: T5, EPHA2 (Homo sapiens, UniProt P29317); assay: KinomeScan kinase profiling; assay type: binding; details: 10 μM
T5 construct: purchased Ambit Biosciences (San Diego, Calif.)

EPHB4 = target: T6, EPHB4 (Homo sapiens, UniProt P54760); assay: KinomeScan kinase profiling; assay type: binding; details: 10 μM
T6 construct: purchased Ambit Biosciences (San Diego, Calif.)

FGFR2 = target: T7, FGFR2 (Homo sapiens, UniProt P21802); assay: KinomeScan kinase profiling; assay type: binding; details: 10 μM
T7 construct: purchased Ambit Biosciences

FGR = target: T8, FGR (Homo sapiens, UniProt P09769); assay: KinomeScan kinase profiling; assay type: binding; details: 10 μM
T8 construct: purchased Ambit Biosciences

FYN = target: T9, FYN (Homo sapiens, UniProt P06241); assay: KinomeScan kinase profiling; assay type: binding; details: 10 μM
T9 construct: purchased Ambit Biosciences

LCK = target: T10, LCK (Homo sapiens, UniProt P06239); assay: KinomeScan kinase profiling; assay type: binding; details: 10 μM
T10 construct: purchased Ambit Biosciences

p38-alpha = p38-alpha (Homo sapiens, UniProt Q16539); assay: KinomeScan kinase profiling; assay type: binding; details: 10 μM
p38-beta = p38-beta (Homo sapiens, UniProt Q15759); assay: KinomeScan kinase profiling; assay type: binding; details: 10 μM
ABL1 = target: T11, ABL1 (Homo sapiens, UniProt P00519); assay: KinomeScan kinase profiling; assay type: binding; details: 10 μM
T11 construct: purchased Ambit Biosciences
Excerpt: (§1) The selectivity of a given CK1α, CK1α-CK1δ, CK1α-CK1ε or CK1α-CK1δ-CK1ε inhibitor compound can be determined by testing the compound against a panel of known kinases. An example of such a kinase profiling technology is the “KinomeScan” from Ambit Biosciences in which compounds can be screened for their modulatory activities against more than 200 known kinases.

BLK = target: T12, BLK (Homo sapiens, UniProt P51451); assay: KinomeScan kinase profiling; assay type: binding; details: 10 μM
T12 construct: purchased Ambit Biosciences
Excerpt: as §1

BMX = target: T13, BMX (Homo sapiens, UniProt P51813); assay: KinomeScan kinase profiling; assay type: binding; details: 10 μM
T13 construct: purchased Ambit Biosciences
Excerpt: as §1

CAMK2D = target: T14, CAMK2D (Homo sapiens, UniProt Q13557); assay: KinomeScan kinase profiling; assay type: binding; details: 10 μM
T14 construct: purchased Ambit Biosciences
Excerpt: as §1

CAMK2G = target: T15, CAMK2G (Homo sapiens, UniProt Q13555); assay: KinomeScan kinase profiling; assay type: binding; details: 10 μM
T15 construct: purchased Ambit Biosciences
Excerpt: as §1

CLK3 = target: T16, CLK3 (Homo sapiens, UniProt P49761); assay: KinomeScan kinase profiling; assay type: binding; details: 10 μM
T16 construct: purchased Ambit Biosciences (San Diego, Calif.)
Excerpt: as §1

CSNK2A1 = target: T17, CSNK2A1 (Homo sapiens, UniProt P68400); assay: KinomeScan kinase profiling; assay type: binding; details: 10 μM
T17 construct: purchased Ambit Biosciences (San Diego, Calif.)
Excerpt: as §1

EGFR = target: T18, EGFR (Homo sapiens, UniProt P00533); assay: KinomeScan kinase profiling; assay type: binding; details: 10 μM
T18 construct: purchased Ambit Biosciences (San Diego, Calif.)
Excerpt: as §1

EPHA8 = target: T19, EPHA8 (Homo sapiens, UniProt P29322); assay: KinomeScan kinase profiling; assay type: binding; details: 10 μM
T19 construct: purchased Ambit Biosciences (San Diego, Calif.)
Excerpt: as §1

ERBB2 = target: T20, ERBB2 (Homo sapiens, UniProt P04626); assay: KinomeScan kinase profiling; assay type: binding; details: 10 μM
T20 construct: purchased Ambit Biosciences
Excerpt: as §1

FER = target: T21, FER (Homo sapiens, UniProt P16591); assay: KinomeScan kinase profiling; assay type: binding; details: 10 μM
T21 construct: purchased Ambit Biosciences
Excerpt: as §1

FES = target: T22, FES (Homo sapiens, UniProt P07332); assay: KinomeScan kinase profiling; assay type: binding; details: 10 μM
T22 construct: purchased Ambit Biosciences
Excerpt: as §1

FGFR1 = target: T23, FGFR1 (Homo sapiens, UniProt P11362); assay: KinomeScan kinase profiling; assay type: binding; details: 10 μM
T23 construct: purchased Ambit Biosciences
Excerpt: as §1

FLT3 = target: T24, FLT3 (Homo sapiens, UniProt P36888); assay: KinomeScan kinase profiling; assay type: binding; details: 10 μM
T24 construct: purchased Ambit Biosciences
Excerpt: as §1

FLT4 = target: T25, FLT4 (Homo sapiens, UniProt P35916); assay: KinomeScan kinase profiling; assay type: binding; details: 10 μM
T25 construct: purchased Ambit Biosciences
Excerpt: as §1

HCK = target: T26, HCK (Homo sapiens, UniProt P08631); assay: KinomeScan kinase profiling; assay type: binding; details: 10 μM
T26 construct: purchased Ambit Biosciences
Excerpt: as §1

JNK1 = target: T27, JNK1 (Homo sapiens, UniProt P45983); assay: KinomeScan kinase profiling; assay type: binding; details: 10 μM
T27 construct: purchased Ambit Biosciences
Excerpt: as §1

LTK = LTK (Homo sapiens, UniProt P29376); assay: KinomeScan kinase profiling; assay type: binding; details: 10 μM
Excerpt: as §1

MYLK2 = MYLK2 (Homo sapiens, UniProt Q9H1R3); assay: KinomeScan kinase profiling; assay type: binding; details: 10 μM
Excerpt: as §1

NEK9 = NEK9 (Homo sapiens, UniProt Q8TD19); assay: KinomeScan kinase profiling; assay type: binding; details: 10 μM
Excerpt: as §1

PAK1 = PAK1 (Homo sapiens, UniProt Q13153); assay: KinomeScan kinase profiling; assay type: binding; details: 10 μM
Excerpt: as §1

PDGFRA = PDGFRA (Homo sapiens, UniProt P16234); assay: KinomeScan kinase profiling; assay type: binding; details: 10 μM
Excerpt: as §1

RPS6KA5 = target: T28, RPS6KA5 (Homo sapiens, UniProt O75582); assay: KinomeScan kinase profiling; assay type: binding; details: 10 μM
T28 construct: purchased Ambit Biosciences
Excerpt: as §1

TNIK = target: T29, TNIK (Homo sapiens, UniProt Q9UKE5); assay: KinomeScan kinase profiling; assay type: binding; details: 10 μM
T29 construct: purchased Ambit Biosciences
Excerpt: as §1

YES = target: T30, YES (Homo sapiens, UniProt P07947); assay: KinomeScan kinase profiling; assay type: binding; details: 10 μM
T30 construct: purchased Ambit Biosciences
Excerpt: as §1

PTK6 = target: T31, PTK6 (Homo sapiens, UniProt Q13882); assay: KinomeScan kinase profiling; assay type: binding; details: 10 μM
T31 construct: purchased Ambit Biosciences

STK3 = target: T32, STK3 (Homo sapiens, UniProt Q13188); assay: KinomeScan kinase profiling; assay type: binding; details: 10 μM
T32 construct: purchased Ambit Biosciences

T12 sequence (P51451 whole entry): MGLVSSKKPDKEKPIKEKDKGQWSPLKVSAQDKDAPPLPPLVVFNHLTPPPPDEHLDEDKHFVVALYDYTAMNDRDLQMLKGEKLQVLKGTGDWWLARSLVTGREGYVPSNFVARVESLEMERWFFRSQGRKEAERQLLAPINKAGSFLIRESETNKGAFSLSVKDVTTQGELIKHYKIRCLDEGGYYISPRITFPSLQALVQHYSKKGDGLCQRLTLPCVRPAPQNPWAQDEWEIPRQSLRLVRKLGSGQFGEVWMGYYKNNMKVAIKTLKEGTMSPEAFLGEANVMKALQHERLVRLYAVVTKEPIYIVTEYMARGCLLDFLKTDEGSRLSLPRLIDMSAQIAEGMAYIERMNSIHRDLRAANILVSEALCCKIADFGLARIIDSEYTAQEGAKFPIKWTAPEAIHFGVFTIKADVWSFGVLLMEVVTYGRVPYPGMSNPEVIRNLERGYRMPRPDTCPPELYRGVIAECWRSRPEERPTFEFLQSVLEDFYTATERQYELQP
Chain of LTK (P29376 17-864): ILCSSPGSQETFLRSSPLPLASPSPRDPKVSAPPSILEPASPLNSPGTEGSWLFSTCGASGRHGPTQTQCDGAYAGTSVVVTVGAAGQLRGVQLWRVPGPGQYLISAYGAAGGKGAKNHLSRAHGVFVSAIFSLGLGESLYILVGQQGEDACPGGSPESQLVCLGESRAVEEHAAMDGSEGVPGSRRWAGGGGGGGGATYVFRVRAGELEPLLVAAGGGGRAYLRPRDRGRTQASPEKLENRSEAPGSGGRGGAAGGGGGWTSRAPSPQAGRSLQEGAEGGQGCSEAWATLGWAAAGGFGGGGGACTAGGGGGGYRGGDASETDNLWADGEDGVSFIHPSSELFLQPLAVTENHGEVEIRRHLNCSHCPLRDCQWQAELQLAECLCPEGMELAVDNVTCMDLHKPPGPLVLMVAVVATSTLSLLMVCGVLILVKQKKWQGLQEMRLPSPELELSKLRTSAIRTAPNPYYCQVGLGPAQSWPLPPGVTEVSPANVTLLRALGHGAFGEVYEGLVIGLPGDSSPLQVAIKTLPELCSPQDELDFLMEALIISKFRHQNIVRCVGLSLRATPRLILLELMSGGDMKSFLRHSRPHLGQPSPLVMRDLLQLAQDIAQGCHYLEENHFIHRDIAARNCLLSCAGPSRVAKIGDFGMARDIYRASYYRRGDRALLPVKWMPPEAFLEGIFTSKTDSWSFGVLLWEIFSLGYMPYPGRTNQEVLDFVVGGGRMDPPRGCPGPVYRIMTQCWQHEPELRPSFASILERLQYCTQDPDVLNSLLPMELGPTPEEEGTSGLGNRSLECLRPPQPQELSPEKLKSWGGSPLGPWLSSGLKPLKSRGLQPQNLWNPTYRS
T15 sequence (Q13555 whole entry): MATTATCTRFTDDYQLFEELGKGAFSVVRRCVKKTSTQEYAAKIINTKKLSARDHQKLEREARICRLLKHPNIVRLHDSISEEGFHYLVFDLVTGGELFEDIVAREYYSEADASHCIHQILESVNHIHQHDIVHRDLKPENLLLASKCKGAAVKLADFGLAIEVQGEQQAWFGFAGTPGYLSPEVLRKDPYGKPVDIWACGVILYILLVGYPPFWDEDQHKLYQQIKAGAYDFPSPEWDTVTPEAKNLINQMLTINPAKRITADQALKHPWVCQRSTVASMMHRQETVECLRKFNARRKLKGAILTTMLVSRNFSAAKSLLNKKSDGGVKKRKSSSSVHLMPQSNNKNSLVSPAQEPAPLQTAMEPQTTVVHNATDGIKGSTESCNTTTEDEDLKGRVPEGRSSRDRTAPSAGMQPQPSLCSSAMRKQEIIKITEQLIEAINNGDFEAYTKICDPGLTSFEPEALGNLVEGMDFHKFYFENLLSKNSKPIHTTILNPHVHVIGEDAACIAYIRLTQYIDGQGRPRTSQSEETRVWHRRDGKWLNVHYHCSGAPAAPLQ
T17 sequence (P68400 whole entry): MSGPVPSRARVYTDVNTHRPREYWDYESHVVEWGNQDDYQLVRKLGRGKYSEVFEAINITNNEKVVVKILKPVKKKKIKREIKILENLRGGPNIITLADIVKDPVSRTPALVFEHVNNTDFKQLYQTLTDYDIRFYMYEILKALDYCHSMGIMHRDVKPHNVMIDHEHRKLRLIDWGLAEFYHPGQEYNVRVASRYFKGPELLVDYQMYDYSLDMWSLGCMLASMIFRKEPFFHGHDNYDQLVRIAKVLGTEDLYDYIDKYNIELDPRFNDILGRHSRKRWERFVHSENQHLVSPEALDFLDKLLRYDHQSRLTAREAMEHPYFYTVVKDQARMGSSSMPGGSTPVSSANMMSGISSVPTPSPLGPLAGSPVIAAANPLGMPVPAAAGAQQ
T24 sequence (P36888 27-993): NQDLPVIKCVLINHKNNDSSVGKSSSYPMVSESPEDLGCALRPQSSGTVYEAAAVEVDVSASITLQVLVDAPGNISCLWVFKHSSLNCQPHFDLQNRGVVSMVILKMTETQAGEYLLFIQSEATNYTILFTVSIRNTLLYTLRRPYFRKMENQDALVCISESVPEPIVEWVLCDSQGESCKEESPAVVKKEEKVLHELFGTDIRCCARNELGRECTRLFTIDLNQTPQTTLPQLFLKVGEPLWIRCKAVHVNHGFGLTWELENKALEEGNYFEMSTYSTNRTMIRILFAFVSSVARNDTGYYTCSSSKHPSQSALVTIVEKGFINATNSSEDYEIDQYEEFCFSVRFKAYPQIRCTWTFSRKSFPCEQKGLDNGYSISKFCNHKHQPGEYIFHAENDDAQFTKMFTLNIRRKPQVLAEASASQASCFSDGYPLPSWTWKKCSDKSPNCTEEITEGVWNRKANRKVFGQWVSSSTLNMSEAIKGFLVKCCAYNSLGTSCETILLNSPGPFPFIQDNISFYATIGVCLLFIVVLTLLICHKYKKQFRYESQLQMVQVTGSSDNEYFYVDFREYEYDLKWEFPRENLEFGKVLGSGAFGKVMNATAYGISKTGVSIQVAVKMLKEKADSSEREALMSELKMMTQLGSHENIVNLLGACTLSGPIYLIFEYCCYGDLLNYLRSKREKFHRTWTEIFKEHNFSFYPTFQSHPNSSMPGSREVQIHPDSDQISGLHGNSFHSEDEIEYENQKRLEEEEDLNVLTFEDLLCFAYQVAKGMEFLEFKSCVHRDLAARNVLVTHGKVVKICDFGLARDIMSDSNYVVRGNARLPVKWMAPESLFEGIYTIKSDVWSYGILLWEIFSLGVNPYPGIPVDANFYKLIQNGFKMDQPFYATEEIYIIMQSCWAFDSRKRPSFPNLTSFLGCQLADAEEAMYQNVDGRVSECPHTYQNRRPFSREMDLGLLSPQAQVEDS
T27 sequence (P45983 whole entry): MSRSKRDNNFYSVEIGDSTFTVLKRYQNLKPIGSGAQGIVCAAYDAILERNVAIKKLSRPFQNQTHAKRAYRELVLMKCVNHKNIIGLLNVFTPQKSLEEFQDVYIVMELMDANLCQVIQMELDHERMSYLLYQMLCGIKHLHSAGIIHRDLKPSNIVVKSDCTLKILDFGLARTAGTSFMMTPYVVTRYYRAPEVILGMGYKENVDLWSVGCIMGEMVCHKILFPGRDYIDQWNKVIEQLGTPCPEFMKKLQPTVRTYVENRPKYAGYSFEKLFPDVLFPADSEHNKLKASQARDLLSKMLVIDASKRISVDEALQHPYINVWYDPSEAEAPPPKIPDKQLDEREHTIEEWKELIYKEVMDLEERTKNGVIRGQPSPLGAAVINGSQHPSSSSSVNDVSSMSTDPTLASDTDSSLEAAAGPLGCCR
T5 sequence (P29317 24-976): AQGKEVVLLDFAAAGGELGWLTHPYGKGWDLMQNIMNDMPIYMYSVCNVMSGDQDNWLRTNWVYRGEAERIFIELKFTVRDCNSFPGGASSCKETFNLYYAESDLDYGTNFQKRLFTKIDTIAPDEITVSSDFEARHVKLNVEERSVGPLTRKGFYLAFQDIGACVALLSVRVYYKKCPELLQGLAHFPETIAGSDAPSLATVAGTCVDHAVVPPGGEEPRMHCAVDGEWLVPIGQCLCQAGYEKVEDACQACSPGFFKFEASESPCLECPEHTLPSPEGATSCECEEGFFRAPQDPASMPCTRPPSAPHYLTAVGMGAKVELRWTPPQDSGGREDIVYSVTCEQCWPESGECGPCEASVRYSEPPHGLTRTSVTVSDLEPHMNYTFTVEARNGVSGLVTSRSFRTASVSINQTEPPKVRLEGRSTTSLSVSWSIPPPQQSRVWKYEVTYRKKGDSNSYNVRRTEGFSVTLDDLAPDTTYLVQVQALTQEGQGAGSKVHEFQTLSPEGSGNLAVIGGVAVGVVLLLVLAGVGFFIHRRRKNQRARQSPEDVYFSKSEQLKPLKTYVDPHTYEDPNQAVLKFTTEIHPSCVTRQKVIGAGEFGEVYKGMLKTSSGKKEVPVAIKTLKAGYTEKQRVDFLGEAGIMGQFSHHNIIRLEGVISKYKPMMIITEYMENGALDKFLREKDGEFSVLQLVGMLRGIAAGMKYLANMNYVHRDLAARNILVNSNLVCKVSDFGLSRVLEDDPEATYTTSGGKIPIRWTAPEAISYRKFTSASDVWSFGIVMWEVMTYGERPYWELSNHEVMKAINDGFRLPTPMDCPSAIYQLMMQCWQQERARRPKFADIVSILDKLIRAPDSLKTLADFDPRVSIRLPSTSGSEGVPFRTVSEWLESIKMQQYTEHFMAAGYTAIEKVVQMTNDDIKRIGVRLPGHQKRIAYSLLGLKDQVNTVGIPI
Chain of p38-beta (Q15759 whole entry): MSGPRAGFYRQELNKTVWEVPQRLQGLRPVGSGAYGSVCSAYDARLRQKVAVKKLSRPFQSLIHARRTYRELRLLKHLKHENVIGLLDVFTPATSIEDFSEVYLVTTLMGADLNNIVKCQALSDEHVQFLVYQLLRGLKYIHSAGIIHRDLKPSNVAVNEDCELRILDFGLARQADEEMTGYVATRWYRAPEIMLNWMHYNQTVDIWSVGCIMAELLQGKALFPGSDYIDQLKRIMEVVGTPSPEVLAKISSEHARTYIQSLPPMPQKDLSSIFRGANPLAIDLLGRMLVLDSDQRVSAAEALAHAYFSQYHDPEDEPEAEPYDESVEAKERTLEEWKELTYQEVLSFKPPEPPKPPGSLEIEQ

| SMILES | % Binding (AMPK-alpha1) | % Binding (BRAF) | % Binding (BRAF(V600E)) | % Binding (EPHA2) | % Binding (EPHB4) | % Binding (FGFR2) | % Binding (FGR) | % Binding (FYN) | % Binding (LCK) | % Binding (p38-alpha) | % Binding (p38-beta) | % Binding (ABL1) | % Binding (BLK) | % Binding (BMX) | % Binding (CAMK2D) | % Binding (CAMK2G) | % Binding (CLK3) | % Binding (CSNK2A1) | % Binding (EGFR) | % Binding (EPHA8) | further results |
| --- | --- | --- | --- | --- | --- | --- | --- | --- | --- | --- | --- | --- | --- | --- | --- | --- | --- | --- | --- | --- | --- |
| NC(=O)c1cc(-c2ccncc2)c[nH]1 [Compound A, 4-Pyridin-4-yl-1H-pyrrole-2-carboxylic acid amide] | <50% | <50% | <50% | <50% | <50% | <50% | <50% | <50% | <50% | <50% | <50% | <50% | <50% | <50% | <50% | <50% | <50% | <50% | <50% | <50% | IC50 (CK1δ; CK1δ, 50 μM ATP, read-out: IC50): 7.57 µM; % Binding (ERBB2): <50%; % Binding (FER): <50%; % Binding (FES): <50%; % Binding (FGFR1): <50%; % Binding (FLT3): <50%; % Binding (FLT4): <50%; % Binding (HCK): <50%; % Binding (JNK1): <50%; % Binding (LTK): <50%; % Binding (MYLK2): <50%; % Binding (NEK9): <50%; % Binding (PAK1): <50%; % Binding (PDGFRA): <50%; % Binding (RPS6KA5): <50%; % Binding (TNIK): <50%; % Binding (YES): <50%; % Binding (PTK6): <50%; % Binding (STK3): <50% |
| COc1cc(OC)c(C=C2C(O)=Nc3ccccc32)c(OC)c1 [IC261, 3-[(2,4,6-trimethoxyphenyl)methylidenyl]-indolin-2-one] | <50% | <50% | <50% | <50% | <50% | <50% | <50% | <50% | <50% | <50% | <50% | <50% | <50% | <50% | <50% | <50% | <50% | <50% | <50% | <50% | IC50 (CK1δ): 1.5 µM; % Binding (ERBB2): <50%; % Binding (FER): <50%; % Binding (FES): <50%; % Binding (FGFR1): <50%; % Binding (FLT3): <50%; % Binding (FLT4): <50%; % Binding (HCK): <50%; % Binding (JNK1): <50%; % Binding (LTK): <50%; % Binding (MYLK2): <50%; % Binding (NEK9): <50%; % Binding (PAK1): <50%; % Binding (PDGFRA): <50%; % Binding (RPS6KA5): <50%; % Binding (TNIK): <50%; % Binding (YES): <50%; % Binding (PTK6): <50%; % Binding (STK3): <50% |
